Test results: patent US20100269215A1 (SNU R&DB Foundation, priority 2006, published 2010)

Experiments:
TflA protein = assay: Degradation of toxoflavin and its derivatives by TflA protein (TLC enzyme analysis); format: biochemical, Paenibacillus polymyxa JH2; settings: within given time; see FIG. 8
Experimental: 5 μM TflA protein, 10 μM MnCl2 and 5 mM DTT (dithiothreitol) were added to analysis buffer (50 mM sodium phosphate (pH 6.5)) to give 200 μl mixture and the reaction was carried out at 25 °C. […] After 10 min of the reaction, 200 μl of chloroform was added to stop the reaction. The chloroform layer was dried completely, then 10 μl of 100% methanol was added. An aliquot taken from the reaction mixture comprising methanol was applied on a TLC plate using pipette. The resulting plate was placed in TLC chamber containing mixed solvents of chloroform and methanol (95:5, V:V) at room temperature. TLC was visualized under UV illuminator (254 nm and 365 nm).

leaves of wild rice = assay: Toxoflavin treatment of cut rice leaves, wild type; settings: toxoflavin 0, 25, 50 or 100 μM, under light; 40 hrs after the treatment
Experimental: (§1) Thus, the experiment of the present invention was carried out under light.

[1] = test system: leaves of the transgenic plants to which tflA gene has been introduced; assay: Toxoflavin treatment of cut rice leaves, transgenic T3 plants; settings: toxoflavin 0, 25, 50 or 100 μM, under light, 48 hrs
Experimental: as §1

[2] = test system: rice callus transformed with pCamLA vector; assay: Selection with toxoflavin of rice callus transformed with pCamLA; format: cell-based
[3] = test system: rice callus transformed with pTflA vector; assay: Selection with toxoflavin of rice callus transformed with pTflA; format: cell-based
[4] = test system: non-transgenic organisms (Arabidopsis Col-0); assay: Seeds on MS plate containing toxoflavin, non-transgenic organisms; format: in vivo, Arabidopsis thaliana; settings: media comprising 20 uM toxoflavin; ten days
[5] = test system: transgenic plants to which the toxoflavin-resistant gene has been incorporated; assay: Seeds on MS plate containing toxoflavin, transgenic plants; format: in vivo, Arabidopsis thaliana; settings: media comprising 20 uM toxoflavin; ten days
Experimental: Detailed method for the transformation is described below. • 1. […] 0.03% silwet was added to the suspension. • 4. […] The plants were wrapped with a plastic bag. Bags were removed two days later.
Roots were also growing well.

[6] = test system: wild rice leaves (Dongjinbyeo wild-type plant); assay: Toxoflavin treatment of leaf pieces, wild-type rice; format: in vivo; settings: 0, 25, 50 or 100 μM toxoflavin, 48 hrs, under light; seen 40 hrs after treatment
Experimental: as §1

[7] = test system: leaves of transgenic T3 rice plant with tflA gene; assay: Toxoflavin treatment of leaf pieces, transgenic T3 rice plant expressing tflA; format: in vivo; settings: 0, 25, 50 or 100 μM toxoflavin, 48 hrs, under light
Experimental: as §1

[8] = test system: rice callus transformed with pCamLA vector; assay: Survival of rice callus under selection with toxoflavin, pCamLA; format: cell-based
[9] = test system: rice callus transformed with pTflA vector; assay: Survival of rice callus under selection with toxoflavin, pTflA; format: cell-based
[10] = test system: Arabidopsis Col-0, non-transgenic organisms; assay: Germination and growth on toxoflavin medium, non-transgenic Arabidopsis; format: in vivo, Arabidopsis thaliana; settings: 20 uM toxoflavin
[11] = test system: Arabidopsis Col-0, non-transgenic organisms; assay: Photo-bleaching test, non-transgenic Arabidopsis; format: in vivo, Arabidopsis thaliana
Text: (§2) Such results correspond to the result of PCR described above.

Arabidopsis Col-0 = assay: Photo-bleaching test, non-transgenic Arabidopsis; format: in vivo, Arabidopsis thaliana
Text: as §2

[12] = test system: Arabidopsis Col-0, transgenic organisms with tflA; assay: Photo-bleaching test, transgenic Arabidopsis; format: in vivo, Arabidopsis thaliana; settings: FIG. 24
Text: as §2

transgenic organisms = assay: Photo-bleaching test, transgenic Arabidopsis; format: in vivo, Arabidopsis thaliana; settings: transgenic organisms selected for the test; FIG. 24
Text: as §2

[13] = test system: Cn1ncnc2c(=O)n(C)c(=O)nc1-2; assay: purified protein, by the assay type; settings: other: toxoflavin 80-200 μM, 50 mM sodium phosphate pH 6.5, MnCl2 and DTT, Lineweaver-Burk plot
Experimental: Each of experimental points is a mean value that is calculated from data obtained from at least of three measurements.

[14] = toxoflavin 5 ug/ml, selection before redifferentiation, FIG. 18
[15] = toxoflavin 5 ug/ml, before redifferentiation
[16] = toxoflavin 7.5 ug/ml, four weeks after placement on redifferentiation medium
[17] = various concentrations, even at low concentration

4,8-dihydrotoxoflavin
degradation by TflA protein (TflA protein): completely degraded

CC1=NN(C)c2[nH]c(=O)n(C)c(=O)c2N1 [3-methyl 4,8-dihydrotoxoflavin]
degradation by TflA protein (TflA protein): partially degraded

Cc1n[nH]c2nc(=O)n(C)c(=O)c-2n1 [3-methylreumycin]
degradation by TflA protein (TflA protein): completely degraded

Cc1nc2c(=O)n(C)c(=O)nc-2n(C)n1 [3-methyltoxoflavin]
degradation by TflA protein (TflA protein): completely degraded

Cn1c(=O)nc2[nH]nc(-c3ccccc3)nc-2c1=O [3-phenylreumycin]
degradation by TflA protein (TflA protein): not degraded at all

Cn1nc(-c2ccccc2)nc2c(=O)n(C)c(=O)nc1-2 [3-phenyltoxoflavin]
degradation by TflA protein (TflA protein): not degraded at all

O=c1[nH]c(=O)c2cc3ccccc3nc2[nH]1 [5-deazaflavin]
degradation by TflA protein (TflA protein): not degraded at all

Cn1c(=O)c2ncnnc2n(C)c1=O [fervenulin]
degradation by TflA protein (TflA protein): partially degraded

Cn1c(=O)[nH]c2nncnc2c1=O [reumycin]
degradation by TflA protein (TflA protein): partially degraded

Cn1ncnc2c(=O)n(C)c(=O)nc1-2 [toxoflavin]
degradation by TflA protein (TflA protein): completely degraded | discoloration of leaves (leaves of wild rice): discoloration due to the toxin started to show up | discoloration of leaves [1]: no such discoloration was observed | survival of callus [2, 14]: most of the callus died out | survival of callus ([2]; toxoflavin 7.5 ug/ml, four weeks after placement on medium for redifferentiation, FIG. 19): most of the callus died out | survival of callus [3, 14]: only a part of the callus died out | survival of callus ([3]; toxoflavin 7.5 ug/ml, four weeks after placement on medium for redifferentiation, FIG. 20): the callus was redifferentiated normally | germination and root growth [4]: germination did not occur for most of the non-transgenic organisms | growth [5]: show normal growth | discoloration of leaves [6]: discoloration due to the toxin started to show up | discoloration of leaves [7]: no such discoloration was observed | survival of callus [8, 15]: most of the callus died out | survival of callus [8, 16]: most of the callus died out | survival of callus [9, 15]: only a part of the callus died out | survival of callus [9, 16]: the callus was redifferentiated normally | germination [10]: germination did not occur for most of the non-transgenic organisms | root growth where germination occurred [10]: root growth was not normal | photo-bleaching ([11]; bleaching test, FIG. 24): the bleaching occurred | bleaching effect [11, 17]: even at low concentration toxoflavin exerts a bleaching effect | photo-bleaching (Arabidopsis Col-0; non-transgenic organisms, FIG. 24): the bleaching occurred | bleaching effect on the plant (Arabidopsis Col-0; [17]): exerts a bleaching effect | photo-bleaching [12]: photo-bleaching was not observed | photo-bleaching (transgenic organisms): photo-bleaching was not observed

Paenibacillus polymyxa JH2 TflA protein, wild type, N-terminal His-tagged (His-TflA), SEQ ID NO: 2 (Paenibacillus polymyxa)
Km [13]: 69.72 µM
